Results taken from patent publication US20260008775A1, “AZOLE MODULATORS OF CHOLESTEROL BIOSYNTHESIS AND THEIR USE FOR PROMOTING REMYELINATION” (GENENTECH, INC., priority 2022, published 2026).
pEC50, pKi: −log10 of the molar value.

Legend:
[1] = biological target: human emopamil binding protein and human 7-dehydrocholesterol reductase (hEBP-DHCR7) (Homo sapiens (Human), UniProt Q15125); experiment: hEBP-DHCR7 radioligand binding assay (filter binding, membranes of co-expressing HEK293 cells); settings: competition with [3H] radioligand, 8 doses 0.06 to 5000 nM, Ki calculated from IC50
Method in brief: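 Membranes from HEK293 cells transiently co-expressing hEBP and DHCR7 (10 μg/well) were incubated for 3 h at 22 °C with tritiated spiro-sulfone radioligand (added at 25 nM) and compound at 1 μM or 0.06–5000 nM. Filtration and scintillation counting followed. Inhibition was normalised to 5 μM unlabelled ligand and DMSO, and Ki was derived as IC50/(1+[L]/Kd).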

[2] = system: zymostenol accumulation (EBP) in EpiSC-derived OPCs; experiment: GC/MS-based sterol profiling, zymostenol accumulation in EpiSC-derived OPCs; format: cell-based, mouse; settings: Mus musculus, 24 h, EpiSC-derived OPCs, 24 hr, 8 doses from 0.15 nM to 333 nM; read-out: Mouse Zymostenol GCMS EC50
Method in brief: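 Mouse epiblast stem cell-derived OPCs plated at 100,000 cells/well in growth-factor-free N2B27 and treated 24 h. Sterols extracted by modified Folch wash, silylated with BSTFA, and quantified by electron-impact GC/MS against cholesterol-d7 (zymostenol ion 458). Zymostenol normalised to 24 h 100 nM positive-control reference.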

EpiSC-derived OPCs = experiment: In vitro phenotypic screening of OPCs, MBP high-content imaging (percentage of oligodendrocytes); format: cell-based, mouse; settings: Mus musculus, 72 h, 3 days, MBP stain, dose-response 0.5 nM to 1000 nM; read-out: OPC EC50
Method in brief: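 Mouse epiblast stem cell-derived OPCs were plated without growth factors and given 8-point doses (1000 nM to 0.5 nM, 0.1% DMSO final) for 3 days at 37 °C. MBP/DAPI immunostaining and high-content imaging gave the percentage of oligodendrocytes. EC50 came from a Hill-equation fit.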

Chain of human emopamil binding protein and human 7-dehydrocholesterol reductase (hEBP-DHCR7) (Q15125 whole entry): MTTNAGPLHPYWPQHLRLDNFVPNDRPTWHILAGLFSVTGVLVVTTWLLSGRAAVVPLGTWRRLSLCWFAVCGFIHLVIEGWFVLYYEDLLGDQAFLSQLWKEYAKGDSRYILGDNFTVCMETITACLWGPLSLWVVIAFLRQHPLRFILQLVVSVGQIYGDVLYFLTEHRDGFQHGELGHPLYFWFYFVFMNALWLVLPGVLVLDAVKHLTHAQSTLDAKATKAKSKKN

Row | Compound | pKi [1] | pEC50 [2] | pEC50 (EpiSC-derived OPCs)
1 | CC(C)n1nc(-c2ccc(C(F)(F)F)c(F)c2)nc1[C@@H]1CC[C@@H](N2CCOCC2)C1 (single isomer, unassigned) [Compound 114*] | 7.83 | 8.10 | 7.59
2 | CC(C)n1nc(-c2cncc(C(F)(F)F)c2)nc1[C@H]1CC[C@@H](N2CCOCC2)C1 (single isomer, unassigned) [Compound 118*] | 7.49 | 7.94 | 7.03
3 | CC(C)n1nc(-c2cnc(C(F)(F)F)nc2)cc1[C@H]1CC[C@@H](N2CCO[C@H](CF)C2)C1 (single isomer, unassigned) [Compound 133*] | 7.77 | 7.67 | 6.56
4 | CC(C)n1nc([C@H]2CC[C@H](C(F)(F)F)CC2)nc1[C@H]1[C@@H]2C[C@@H](N3CCOC[C@H]3C)C[C@@H]21 (single isomer, unassigned) [Compound 165*] | 7.39 | 8.34 | 7.46
5 | CC(C)n1nc([C@H]2CC[C@@H](C(F)(F)F)CC2)nc1[C@H]1[C@@H]2C[C@H](N3CCOC[C@H]3C)C[C@@H]21 (single isomer, unassigned) [Compound 166*] | 7.39 | 7.52 | 6.97
6 | CC(C)n1nc([C@H]2CC[C@@H](C(F)(F)F)CC2)nc1[C@H]1[C@@H]2C[C@@H](N3CCOC[C@H]3C)C[C@@H]21 (single isomer, unassigned) [Compound 167*] | 7.60 | 8.45 | 7.54
7 | CC(C)n1nc(-c2ccc(C(F)(F)F)nc2)nc1[C@H]1CC[C@@H](N2CCO[C@H](CF)C2)C1 (single isomer, unassigned) [Compound 169] | 7.52 | 8.12 | 8.21
8 | Cc1ccccc1-c1cc([C@H]2[C@@H]3C[C@H](N4CCCOCC4)C[C@@H]32)n(C(C)C)n1 (single isomer, unassigned) [Compound 197*] | 8.01 | 8.26 | 8.00
9 | Cc1ccccc1-c1cc([C@H]2[C@@H]3C[C@@H](N4CCCOCC4)C[C@@H]32)n(C(C)C)n1 (single isomer, unassigned) [Compound 198*] | 7.69 | 7.38 | 6.98
10 | CC(C)n1nc(-c2cccc(OC(F)F)c2)cc1[C@H]1[C@@H]2C[C@H](N3CCCOCC3)C[C@@H]21 (single isomer, unassigned) [Compound 199*] | 8.09 | 8.69 | 8.40
11 | CC(C)n1nc(-c2cccc(OC(F)F)c2)cc1[C@H]1[C@@H]2C[C@@H](N3CCCOCC3)C[C@@H]21 (single isomer, unassigned) [Compound 200*] | 7.94 | 7.86 | 7.44
12 | CC(C)n1nc(-c2ccc(OC(F)F)cc2)cc1[C@H]1[C@@H]2C[C@H](N3CCCOCC3)C[C@@H]21 (single isomer, unassigned) [Compound 201*] | 7.96 | 8.08 | 7.61
13 | CC(C)n1nc(-c2cccc(C(F)(F)F)n2)nc1[C@@H]1CCC(N2CCOCC2)C1 (stereo in doubt) [26*, 4-((1S,3R)-3-(1-isopropyl-3-(6-(trifluoromethyl)pyridin-2-yl)-1H-1,2,4-triazol-5-yl)cyclopentyl)morpholine] | 7.65 | 7.93 | 7.07
14 | CC(C)n1nc(-c2cncc(C(F)(F)F)c2)cc1[C@H]1CC[C@@H](N2CCOCC2)CC1 [1*, 4-((1s,4s)-4-(1-isopropyl-3-(5-(trifluoromethyl)pyridin-3-yl)-1H-pyrazol-5-yl)cyclohexyl)morpholine] | 7.41 | 7.68 | 7.09
15 | CC(C)n1nc(-c2cncc(C(F)(F)F)c2)cc1[C@H]1CC[C@H](N2CCOCC2)CC1 [2*, 4-((1r,4r)-4-(1-isopropyl-3-(5-(trifluoromethyl)pyridin-3-yl)-1H-pyrazol-5-yl)cyclohexyl)morpholine] | 7.39 | 7.77 | 7.01
